Measured values published in patent US6514981B1, “Methods of modulating tyrosine protein kinase function with indolinone compounds” (Sugen, Inc., priority 1998, dated 2003).
pIC50: −log10 of the molar value.

How the values were obtained:
Type in all cases: cell-based
[1] = target: human FLK-1 (Homo sapiens, UniProt P35968); experiment: FLK-1 receptor phosphorylation assay in cells (ELISA); details: NIH3T3 C7#3 cells, VEGF stimulation
[2] = system: HUV-EC-C cells; experiment: HUV-EC-C assay (3H-thymidine), aFGF; details: Homo sapiens, 3H-thymidine incorporation, HUVEC
Experimental: The following protocol may also be used to measure a compound's activity against PDGF-R, FGF-R or Flk-1/KDR, all of which are naturally expressed by HUV-EC cells. 1. Wash and trypsinize HUV-EC-C cells (human umbilical vein endothelial cells, (American Type Culture Collection; catalogue no. 1730 CRL). Wash with Dulbecco's phosphate-buffered saline (D-PBS; obtained from Gibco BRL, catalogue no. 14190-029) 2 times at about 1 mL/10 CM^2 of tissue culture flask. Trypsinize with 0.05% trypsin-EDTA in non-enzymatic cell dissociation solution (Sigma Chemical Company; catalogue no. C-1544). The 0.05% trypsin was made by diluting 0.25% trypsin/1 mM EDTA (Gibco; catalogue no. 25200-049) in the cell dissociation solution. Trypsinize with about 1 mL/25-30 cm^2 of tissue culture flask for about 5 minutes at 37° C. After cells have detached from the flask, add an equal volume of assay medium and transfer to a 50 mL sterile centrifuge tube (Fisher Scientific; catalogue no. 05-539-6). 2. Wash the cells with about 35 mL assay medium in the 50 mL sterile centrifuge tube by adding the assay medium, centrifuge for 10 minutes at approximately 200×g aspirate the supernatant and resuspend with 35 mL D-PBS. Repeat the wash two more times with D-PBS, resuspend the cells in about 1 mL assay medium/15 cm^2 of tissue culture flask. […]

[3] = target: T1, Insulin Receptor (Homo sapiens, UniProt P06213); experiment: Insulin receptor phosphorylation assay in H25 cells (ELISA); details: insulin stimulation
T1 construct: expressed in transfected cells; host or cells: H25 cells (NIH3T3, ATCC No. 1658)
T1 sequence (P06213 28-1382, species assumed): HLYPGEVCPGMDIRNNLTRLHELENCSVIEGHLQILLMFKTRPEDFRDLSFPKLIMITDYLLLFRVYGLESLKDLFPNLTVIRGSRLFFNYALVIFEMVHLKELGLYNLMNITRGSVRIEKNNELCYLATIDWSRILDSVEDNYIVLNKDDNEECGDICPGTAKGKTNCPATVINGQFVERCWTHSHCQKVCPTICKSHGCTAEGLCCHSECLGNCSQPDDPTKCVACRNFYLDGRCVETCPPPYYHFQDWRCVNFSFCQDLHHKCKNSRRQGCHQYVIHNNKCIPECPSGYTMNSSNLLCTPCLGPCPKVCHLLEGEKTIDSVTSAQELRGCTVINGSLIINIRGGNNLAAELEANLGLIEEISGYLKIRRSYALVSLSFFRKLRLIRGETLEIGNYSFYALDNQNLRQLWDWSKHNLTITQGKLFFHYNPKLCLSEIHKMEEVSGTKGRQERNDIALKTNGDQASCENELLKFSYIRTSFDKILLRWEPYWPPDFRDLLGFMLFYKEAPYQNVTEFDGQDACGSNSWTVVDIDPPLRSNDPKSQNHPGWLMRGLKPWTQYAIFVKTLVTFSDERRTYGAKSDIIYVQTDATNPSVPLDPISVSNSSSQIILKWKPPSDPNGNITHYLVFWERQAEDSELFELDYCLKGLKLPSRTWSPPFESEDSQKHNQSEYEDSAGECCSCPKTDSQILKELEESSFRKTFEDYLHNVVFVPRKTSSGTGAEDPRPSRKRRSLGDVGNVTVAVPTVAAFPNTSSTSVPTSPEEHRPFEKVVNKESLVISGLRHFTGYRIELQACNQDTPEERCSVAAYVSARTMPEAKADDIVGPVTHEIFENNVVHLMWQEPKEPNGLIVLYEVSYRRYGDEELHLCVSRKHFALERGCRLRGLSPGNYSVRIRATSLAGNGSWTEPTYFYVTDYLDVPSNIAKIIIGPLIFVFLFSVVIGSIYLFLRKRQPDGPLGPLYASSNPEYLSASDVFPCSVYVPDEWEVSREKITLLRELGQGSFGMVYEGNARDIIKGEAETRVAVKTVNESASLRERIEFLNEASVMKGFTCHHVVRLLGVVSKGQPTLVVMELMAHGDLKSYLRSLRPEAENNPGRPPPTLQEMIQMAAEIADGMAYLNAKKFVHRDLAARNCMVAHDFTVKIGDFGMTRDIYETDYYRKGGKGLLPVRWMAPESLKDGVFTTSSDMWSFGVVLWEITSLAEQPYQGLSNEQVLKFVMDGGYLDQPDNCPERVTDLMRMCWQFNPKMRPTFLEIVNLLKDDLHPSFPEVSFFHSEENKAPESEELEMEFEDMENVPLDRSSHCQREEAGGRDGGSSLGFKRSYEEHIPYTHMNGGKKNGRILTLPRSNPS
Experimental: The following materials and reagents were used to measure phophotyrosine levels on the insulin receptor (indicating insulin receptor tyrosine kinase activity):
1. The preferred cell line was an NIH3T3 cell line (ATCC No. 1658) which overexpresses Insulin Receptor (H25 cells);
2. Resuspend the cells in fresh DMEM+10% FBS+2mM L-Glutamine, and transfer to 96-well tissue culture plate (Corning, 25806-96) at 20,000 cells/well (100 μL/well). The cells are then incubated for 1 day. Following such incubation, 0.01% serum medium (90/μL) replaces the old media and the cells incubate in 5% CO2 and 37° C. overnight.
1. Coat the ELISA plate (Corning 25805-96) with Anti-IR Antibody at 0.5 μg/well in 100 μL PBS at least 2 hours.
C. Assay Procedures 1. The drugs are tested in serum-free condition. 2. Dilute drug stock (in 100% DMSO) 1:10 with DMEM in 96-well poly-propylene plate, and transfer 10 μL/well of this solution to the cells to achieve final drug dilution 1:100, and final DMSO concentration of 1.0%. Incubate the cells in 5% CO2 at 37° C. for 2 hours.
4. After drug incubation for two hours, transfer 10 μL/well of 1 μM insulin in PBS to the cells (Final concentration=100 nM), and incubate at 5% CO2 at 37° C. for 10 minutes.
5. […]
The IC50 values measured in the insulin receptor phosphorylation assay for the compound of formula VI are depicted in Table 7: […]

- pIC50 [1]: 5.32
- IC50 [2]: 0.63 µM
- pIC50 [3]: 4.66
SMILES: Cc1cc(/C=C2/C(=O)Nc3ccccc32)c(C)c2c1[nH]c1ccccc12 [VI]
